Experimental data reported in patent publication US8298328B2, “Amorphous metal salt for facilitating the handling property of portland cements and dental applications thereof” (Taipei Medical University, priority 2008, dated 2012).

Experiments:
[1] = Crystal form by wide-angle X-ray diffraction (XRD); assay type: physicochemical; settings: XRD of powder
Protocol: The crystal form of the CLG powder prepared above is determined by wide-angle x-ray diffraction (XRD). First, 1.00 g of CLG powder was placed in a sample carrier, and the powder filling was pressed by a slide. Then, the sample was placed on an X-ray diffractometer (MaxRC, Rigaku, Japan), and X-ray diffraction was performed by using Kα radiation (λ=1.541838A) at scan rate of 10°/min and 20 scanning angle from 5° to 60°. The peaks of X-ray diffraction data were analyzed in accordance with the Joint Committee on Powder Diffraction Standards (JCPDS).

[2] = filtrate after reaction with CaO, before drying
Protocol: After mixing and stirring for 1 hour, the solution was filtered, and the filtrate was collected.

[3] = Water solubility of the divalent metal salt powder; settings: 25° C., dried powder

O.O.O=S(=O)([O-])[O-].[Ca+2] [Comparative Example 1, Calcium Sulfate Dehydrate, reference compound]
Crystal form [1]: Crystalline

CC(O)C(=O)[O-].CC(O)C(=O)[O-].[Ca+2] (stereo not drawn) [Comparative Example 3, Calcium Lactate, reference compound]
Crystal form [1]: Crystalline | Crystal form ([1]; listed as CL): crystalline

CC(O)C(=O)[O-].O=C([O-])[C@H](O)[C@@H](O)[C@H](O)[C@H](O)CO.[Ca+2] [Example 1, Calcium Lactate Gluconate]
pH value of the filtrate solution [2]: 9.8 | Crystal form [1]: Amorphous | Crystal form ([1]; listed as CLG): amorphous | Solubility (water solubility) [3]: 35.7~41.0 g/100 ml | Solubility (water solubility) ([3]; listed as CLG): 35.7˜41.0 g/100 ml

O=C([O-])[C@H](O)[C@@H](O)[C@H](O)[C@H](O)CO.O=S(=O)([O-])O.[Ca+2] [Example 3, Calcium Sulfate Gluconate]
pH value of the filtrate solution [2]: 9.3 | Crystal form [1]: Amorphous | Crystal form ([1]; listed as CSG): amorphous | Solubility (water solubility) [3]: 30.1~31.7 g/100 ml | Solubility (water solubility) ([3]; listed as CSG): 30.1˜31.7 g/100 ml

Calcium Gluconate [Comparative Example 2, reference compound]
Crystal form [1]: Crystalline | Crystal form ([1]; listed as CG): crystalline

Calcium Lactate Sulfate [Example 2]
pH value of the filtrate solution [2]: 9.7 | Crystal form [1]: Amorphous | Crystal form ([1]; listed as CLS): amorphous
